Test results taken from patent US7715901B2, “Sensitized online BOLD-MRI imaging method” (Yeda Research and Development Co. Ltd., priority 2002, dated 2010).

Experiments:
[1] = test system: melanoma, glioma, sarcoma and human prostate xenografts; conditions: cited from earlier work; for Cure rates after anti-vascular PDT: mice and rats
human blood [2] = experiment: Spectroscopic sPO2 of photosensitized blood
Method: sPO2 of photosensitized blood: Optical spectroscopy. Fresh human blood collected in Na-citrate was steered (37° C.) in a sealed optical cuvette (under N2) without or with Pd-Bpheid (100 μg/ml). Online spectroscopic sPO2 determination was performed with a LESA reflectance spectrometer (Biospec, Moscow, Russia) as described (Neeman et al., 2001). Recording was initiated 2 minutes prior to illumination. Ten illumination cycles (1 min each, 170 mW/cm^2) were performed with spectral measurements (8×5 sec) in the intervening periods when the light was turned-off.
For spectroscopic examination, fresh human blood was subjected to spectral analysis of sPO2 during PDT in vitro. […] Upon illumination, a rapid decline in sPO2 was observed reaching a plateau at ˜25% (≧2 minutes of illumination). In the absence of Pd-Bpheid, illumination had no effect.

normal canine prostate = conditions: dog, in vivo; cited from earlier work
[3] = test system: mouse ear lobe blood vessels; experiment: Fluorescent intravital microscopy of PDT-induced hemodynamic changes; format: in vivo
Method: (iv) Intravital microscopy (IVM). Fluorescent IVM was performed with an upright microscope (Nikon Optiphot 2, Kawasaki, Japan) equipped with a thermoregulated stage (37° C.), a CCD camera (50 fps, Applitech, Tel-Aviv, Israel) and a VCR (JVC model HR-J437MS, Yokohama, Japan) for video recording.
Fluorescent IVM in the nude mouse ear lobe (Proske et al, 2000) was used for analysis of changes in vascular diameter, vascular permeability and blood flow. RBC from a donor mouse were labeled ex vivo with 4-(4-(didecylamino)styryl)-N-methylpyridinium iodide (4-Di-10-ASP, 7.5 μg/ml, Molecular Probes, Eugene, Oreg., USA), as previously described (Neeman et al., 2001). The labeled RBC mixed with TRITC-dextran (256 KDa, 0.5 mg/mouse as blood-pool marker, Sigma, St. Louis, Mo., USA) were i.v. administered to the tumor-bearing mouse (labeled cells comprised 1.17+/−0.08% of host RBC as verified on blood smears) and allowed to circulate for 10 min prior to video recording (mag. ×100, 20 min), starting 5 min prior to Pd-Bpheid/light and ending 5 min after the light was turned-off. Mice were euthanized by CO2 at the end of the experiment.
Fluorescence images of blood vessels were acquired every 2 minutes, before, during and up to 10 minutes after illumination. Two hemodynamic parameters were digitally calculated (Scionimage software, Scion Corp., USA) from these images: (1) Changes in blood vessel diameter (arteriolar and venular), and (2) Extravascular leakage of TRITC-dextran (measured as changes in mean pixel intensity at an 2500 μm^2 extravascular region of interest). Both parameters are presented as % of initial value.
It was reported by us (Zilberstein et al., 2001) and others (Dolmans et al., 2002), that in course of anti-vascular PDT, rapid and intense hemodynamic alterations and stasis are observed in the treated tumor site. In this experiment, fluorescence IVM was used to correlate these hemodynamic changes with the MR signal alterations before, during and after Pd-Bpheid PDT. All IVM experiments were performed on the mouse ear lobe model (Proske et al., 2000), since blood vessels in this area can be easily visualized non-invasively under the microscope. Three hemodynamic parameters were measured: (1) changes in vessel diameter (vasoconstriction), (2) extravascular macromolecular leakage, and (3) red blood cell (RBC) flux. […] Significant changes in vessel diameter or RBC flux were not observed in control animals (FIGS. 3B, D and F). […] Changes in tumor perfusion were assessed before, during and after Pd-Bpheid PDT. Pd-Bpheid administration and immediate illumination of the mouse ear lobe, initiated a rapid decrease in perfusion rate both in arterioles and vennules (open and solid circles, respectively), reaching stasis within 3-4 min (FIG. 3C), while illumination alone had no significant effect (FIG. 3D).

M2R melanoma tumor = experiment: Online BOLD-contrast MRI during solid tumor PDT; format: in vivo, mouse
Method: (a) Gradient echo (GE) and multiecho gradient echo (MEGE) MR images were acquired on a horizontal 4.7 T Bruker Biospec spectrometer (Rheinstetten, Germany), as described previously (Gilead et al., 1999). Imaging parameters are as follows: slice thickness 0.8 mm, TR 230 ms, TE 10 ms for GE and TE 10, 21.24 and 32.48 ms for MEGE, flip angel 40°, acquisition (AQ) time 117 sec, matrix 256×256 pixels.
(b) Animal studies: Whole body excitation coil and an RF decoupled 1.5 cm surface coil were used for improving signal/noise ratio (field of view 4 cm, slice thickness 0.8 mm). Mice were anesthetized, catheterized, and restrained by adhesive tape (supine/lateral) to locate the tumor above the center of the MRI surface coil; the laser optic fiber was fixed in place to illuminate the tumor area (FIG. 5A). After four sequential images were acquired, mice were treated i.v. with Pd-Bpheid (5 mg/kg) followed by 10 min illumination, while 11 more images were acquired. Room temperature was maintained at 28° C.
(d) Data analysis: MRI data was analyzed using Matlab (The MathWorks Inc., Natick, Mass., USA), Orisis (Version 4.0.9, Geneva, Switzerland) and Paravision 2.1.1 (Bruker, Rheinstetten, Germany). MR signal intensity was derived from each image, either from the region of interest inside the tumor or in control tissue, and normalized to the first image. Response maps were generated by division of each image by the average of the first 2 pre-PDT images. R2* maps were derived by noise weighted linear regression of log(SI), for each pixel. Only pixels with fit of R^2≧0.36 were analyzed. R2*: MRI relaxivity parameter; R^2: statistical correlation parameter.
Having shown that photosensitization of Pd-Bpheid induces changes in blood oxygen levels, we next attempted to detect such changes during PDT of a solid tumor in vivo, using MRI. BOLD-MR imaging was applied before, during and after PDT of the solid subcutaneous M2R melanoma tumor. Pd-Bpheid administration, followed by instant tumor illumination, induced a profound decrease in the MR signal intensity (25-40%) solely within the illuminated tumor area (FIGS. 5C, 6A and 6E). […] MR signal attenuation developed during the first 6-7 minutes of illumination and remained low throughout the experiment.
The MRI value ΔR2* (relaxivity difference in T2*-weighted acquisitions) is dependent only on changes in blood oxygenation and volume, and is not dependent on blood flow.

human blood [4] = experiment: T2* weighted MRI of photosensitized isolated blood (ex vivo); conditions: for Decline in T2* weighted MR signal intensity of blood: untreated blood = 100%
Method: (c) Ex-vivo measurements: Freshly collected human blood in sodium citrate was spun down and re-suspended in autologous plasma to 0.6-0.7 hematocrit to minimize red blood cell (RBC) sedimentation during MRI experiments. Blood samples (500 μl) were placed in 6×50 mm glass tubes (Kimble, Div. of Owens, Ill., USA), sealed under N2 and each placed in a 3.5 ml optical plastic cuvette containing 2 ml of PBS. A proton volume coil was used (field of view 7 cm, slice thickness 2 mm, data was zero filled to matrix 512×512). Data were analyzed as the mean signal intensity of the blood sample relative to the surrounding phosphate-buffered saline (PBS).
For the MRI examination, we next determined the effect of PDT on sPO2 in isolated human blood, as manifested in T2* weighted MR signal intensity, under similar conditions. […] Thus, photosensitization of Pd-Bpheid in blood reduces sPO2 as reflected by a significant decrease in signal intensity of […] MR images in the absence of flow and volume changes.

[5] = test system: M2R melanoma tumor blood vessels; experiment: Immunohistochemistry of HNE-protein adducts (lipid peroxidation) in tumors after PDT; format: in vivo, mouse; conditions: tumors dissected 1 hour after PDT
Excerpt: (iii) Immunohistochemistry (IHC): Histological and immunohistological examinations were used for validation of the results obtained during the PDT experiments conducted by MRI and IVM. Dissected tumors were fixed in paraformaldehyde, and embedded in paraffin. IHC of PDT-induced LPO was based on immunodetection of HNE (4-hydroxynonenal), an aldehydic peroxidation product of polyunsaturated fatty acids that forms covalent adducts with proteins by reductive amination and/or Michael type addition (Uchida et al., 1995). PDT-damaged areas were visualized by IHC with anti-HNE. Thus, tumor sections were re-hydrated, blocked with bovine serum albumin for 4 h at 37° C., and treated with rabbit anti-HNE antiserum specifically recognizing HNE adducts (Calbiochem, La Jolla, Calif., USA, 1:400). HRP-conjugated goat anti-rabbit antibody served as 2nd antibody (Jackson, West Grove, Pa., USA) using 3-amino-9-ethylcarbazole as a chromogenic substrate (AEC, Sigma, St. Louis, Mo., USA).
Tumors were dissected 1 hour after PDT, fixed and prepared for IHC. […] In tumors taken from light controls (FIGS. 2B, 2E) or dark controls (data not shown), HNE staining was negative in blood vessels and was seen only in necrotic tumor core (spontaneous, PDT independent). FIGS. 2A, 2B and 2C are parallel adjacent sections of 2D, 2E and 2F, respectively, stained with hematoxylin-eosin.

M2R melanoma xenografts = experiment: Follow up of tumor response after Pd-Bpheid PDT; format: in vivo, mouse
Method: (i) Animals, tumor model and PDT Male CD1 nude mice (30 g±2 g) were implanted s.c. with M2R melanoma xenografts. PDT of anesthetized mice was performed on tumors (7-9 mm in diameter), as previously described (Zilberstein et al., 2001), with slight changes to allow for manipulation inside the magnet during MRI recording, or to perform PDT on the anesthetized mouse placed on the microscope stage during IVM. Intravenous (i.v.) Pd-Bpheid administration (5 mg/kg in vehicle, provided by Negma-Lerads Laboratoires, Toussus Le-Noble, France) was immediately followed by fiber optic guided tumor illumination (light spot Ø=1 cm^2, 763 nm, 102 J/cm^2) for 10 minutes, using a 1 W diode laser (CeramOptec GmbH, Bonn, Germany). The experiments were performed inside the magnet during the MRI recording (see details below). Room temperature was kept constant (28° C.) throughout the experiments.
PDT was performed in three modes: (i) for tumor therapy, i.v. Pd-Bpheid administration was immediately followed by transcutaneous illumination; (ii) for MR imaging, Pd-Bpheid administration (by remotely activated i.v. catheterization) and transcutaneous illumination were performed inside the magnet (FIG. 5A); and (iii) for IVM, Pd-Bpheid administration and illumination of the semi-transparent mouse ear were conducted on top of the microscope stage.
Controls: Light control: illumination of tumors in mice administered with vehicle alone (without photosensitizer). Dark control, Pd-Bpheid administered to tumor-bearing mice without illumination. Mice were euthanized (CO2) to avoid tumor burden when tumors reached ≧10% of body weight. All experiments were conducted according to institutional animal welfare regulations.
Male CD1 nude mice, s.c. implanted with M2R melanoma xenografts were i.v.-injected with Pd-Bpheid (5 mg/kg) and instantly illuminated for 10 minutes (102 J/cm^2). Hemorrhagic tumor necrosis (10/11 mice within 24-48 h) was accompanied by a strong inflammatory response. Tumors in untreated (4/4) light (4/4 mice) or dark (4/4 mice) controls continued to grow reaching […] of body […] by 9±3 days. […]

Which “Cure rates after anti-vascular PDT” value [1] does the source give for “bacteriochlorophyll-serine [Bchl-Ser, reference compound]” here?
The value was “high cure rates”.

For CC[C@H]1c2cc3[n-]c4c(c3C)C(=O)[C@H](C(=O)OC)c4c3nc(cc4[n-]c(cc(n2)[C@@H]1C)c(C(C)=O)c4C)[C@@H](C)[C@@H]3CCC(=O)O.[Pd+2] [Pd-Bpheid, Palladium-bacteriopheophorbide], which “sPO2 plateau upon illumination” value (human blood [2]; Pd-Bpheid 100 μg/ml, 170 mW/cm^2, ≧2 minutes of illumination) is on record?
Its value is roughly 25%.

What about the “Decline in sPO2” value (human blood [2]; within the first min of illumination, FIG. 4A) of the same molecule?
Its value is roughly 75%.

And the “Incidence of metastasis compared with conventional surgery” value ([1]; Schreiber et al., 2002)?
The value was “decreased the incidence of metastasis”.

What about the “Cure rates after anti-vascular PDT” value [1] of the same molecule?
The value was “high cure rates”.

What about the “Outcome of PDT in canine prostate” value (normal canine prostate) of the same molecule?
Its value is “full necrosis of the tumor without functional urethral damage or damage to other adjacent tissues”.

What about the “Reduction in arteriolar diameter” value ([3]; 2-3 minutes after onset of illumination) of the same molecule?
Its value is “about 50%”.

And the “Blood flow (RBC flux)” value ([3]; 2-6 minutes after onset of illumination)?
Its value is “sharp decline in blood flow”.

And the “Time to complete blood stasis after onset of illumination” value ([3]; FIG. 3C)?
The value was 6 to 7 min.

What about the “Time to stasis (perfusion rate in arterioles and venules)” value ([3]; FIG. 3C, immediate illumination of ear lobe) of the same molecule?
The value was 3 to 4 min.

What about the “Extravascular TRITC-dextran (256 KDa) leakage, highest level” value ([3]; at end of illumination period, ± S.E.) of the same molecule?
Its value is 145±8 % of baseline.

What about the “Decrease in MR signal intensity in illuminated tumor” value (M2R melanoma tumor; 5 mg/kg i.v., 10 min illumination) of the same molecule?
The value was 25-40%.

And the “Change in MR signal intensity, dark tumor control” value (M2R melanoma tumor; Pd-Bpheid without illumination, FIG. 6C)?
Its value is “No detectable change in signal intensity”.

What about the “Time to generation of photosensitized MR BOLD-contrast” value (M2R melanoma tumor; during PDT) of the same molecule?
The value was no more than 2 min.

What about the “Time over which MR signal attenuation developed” value (M2R melanoma tumor; from onset of illumination) of the same molecule?
Its value is 6 to 7 min.

What about the “Decline in T2* weighted MR signal intensity of blood” value (human blood [4]; 1 min illumination) of the same molecule?
The value was 38.1%.

And the “Decline in T2* weighted MR signal intensity of blood” value (human blood [4]; 5 min illumination)?
Its value is 74.4%.

What about the “MR signal intensity of dark control blood” value (human blood [4]; Pd-Bpheid without light) of the same molecule?
The value was “essentially identical to that of untreated blood”.

What about the “HNE adduct immunostaining (ROS-induced LPO)” value [5] of the same molecule?
The value was “massive generation of HNE adducts co-localized with tumor blood vessels”.

And the “Hemorrhagic tumor necrosis (responding/treated mice)” value (M2R melanoma xenografts; 5 mg/kg i.v., instant illumination 10 min, 102 J/cm^2, within 24-48 h)?
Its value is 10/11.

What about the “Tumors continued to grow (dark control, Pd-Bpheid without illumination)” value (M2R melanoma xenografts; 5 mg/kg, no light) of the same molecule?
The value was 4/4.

And the “Tumor outcome in visual follow-up” value (M2R melanoma xenografts; one mouse, 5 mg/kg i.v., 763 nm, 102 J/cm^2, day 54 post treatment)?
The value was “cure”.
